# Measured values as given in patent US11807644B2 (PMV Pharmaceuticals, Inc., priority 2020, dated 2023).
# Target: T1, recombinant His-tag Y220C p53 DBD protein (Homo sapiens, UniProt P04637, Y220C)
# T1 construct: recombinant His-tag Y220C p53 DBD protein (amino acids #˜94-312)
# Assay: In vitro DNA binding activity assay (TR-FRET): binding of His-tag Y220C p53 DBD to biotin-labeled consensus DNA
# Type: biochemical
# Conditions: SC150 = concentration to increase DNA binding by […], His-tag Y220C p53 DBD, biotin-labeled consensus DNA
row,Y220C SC150 (μM),Structure (SMILES)
1,* (* = 0 μM ≤ SC150 < 0.1 μM),"CN1CC[C@@H](Nc2cccc3c2cc(-c2noc(CNC(=O)c4ccn(C5COC5)c4)n2)n3CC(F)(F)F)[C@@H](F)C1 [Compound 379B, N-{[3-(4-{[(3S,4R)-3-fluoro-1-methylpiperidin-4-yl]amino}-1-(2,2,2-trifluoroethyl)-1H-indol-2-yl)-1,2,4-oxadiazol-5-yl]methyl}-1-(oxetan-3-yl)-1H-pyrrole-3-carboxamide]"
2,* (* = 0 μM ≤ SC150 < 0.1 μM),"CN1CC[C@@H](Nc2cccc3c2cc(-c2noc(CNC(=O)c4ccn(C(C)(C)C)n4)n2)n3CC(F)(F)F)[C@@H](F)C1 [Compound 529B, 1-tert-butyl-N-{[3-(4-{[(3S,4R)-3-fluoro-1-methylpiperidin-4-yl]amino}-1-(2,2,2-trifluoroethyl)-1H-indol-2-yl)-1,2,4-oxadiazol-5-yl]methyl}-1H-pyrazole-3-carboxamide]"
3,* (* = 0 μM ≤ SC150 < 0.1 μM),"CN1CC[C@@H](Nc2cccc3c2cc(-c2noc(CNC(=O)c4ccn(C5CCOCC5)c4)n2)n3CC(F)(F)F)[C@@H](F)C1 [Compound 335B, N-{[3-(4-{[(3S,4R)-3-fluoro-1-methylpiperidin-4-yl]amino}-1-(2,2,2-trifluoroethyl)-1H-indol-2-yl)-1,2,4-oxadiazol-5-yl]methyl}-1-(oxan-4-yl)-1H-pyrrole-3-carboxamide]"
4,* (* = 0 μM ≤ SC150 < 0.1 μM),"CN1CC[C@@H](Nc2cccc3c2cc(-c2noc(CNC(=O)c4csc(N5CCOCC5)n4)n2)n3CC(F)(F)F)[C@@H](F)C1 [Compound 465B, N-{[3-(4-{[(3S,4R)-3-fluoro-1-methylpiperidin-4-yl]amino}-1-(2,2,2-trifluoroethyl)-1H-indol-2-yl)-1,2,4-oxadiazol-5-yl]methyl}-2-(morpholin-4-yl)-1,3-thiazole-4-carboxamide]"
5,* (* = 0 μM ≤ SC150 < 0.1 μM),"CN1CC[C@@H](Nc2cccc3c2cc(-c2noc(CNC(=O)c4ccn([C@H]5CC[C@@](C)(O)C5)c4)n2)n3CC(F)(F)F)[C@@H](F)C1 (stereo in doubt) [Compound 374B, Cis-N-{[3-(4-{[(3S,4R)-3-fluoro-1-methylpiperidin-4-yl]amino}-1-(2,2,2-trifluoroethyl)-1H-indol-2-yl)-1,2,4-oxadiazol-5-yl]methyl}-1-[(1R,3S)-3-hydroxy-3-methylcyclopentyl]-1H-pyrrole-3-carboxamide]"
6,* (* = 0 μM ≤ SC150 < 0.1 μM),"COC[C@H]1CCCN1c1nc(C(=O)NCc2nc(-c3cc4c(N[C@@H]5CCN(C)C[C@@H]5F)cccc4n3CC(F)(F)F)no2)cs1 [Compound 520B, N-{[3-(4-{[(3S,4R)-3-fluoro-1-methylpiperidin-4-yl]amino}-1-(2,2,2-trifluoroethyl)-1H-indol-2-yl)-1,2,4-oxadiazol-5-yl]methyl}-2-[(2R)-2-(methoxymethyl)pyrrolidin-1-yl]-1,3-thiazole-4-carboxamide]"
7,* (* = 0 μM ≤ SC150 < 0.1 μM),"CCN1CC[C@@H](Nc2cccc3c2cc(-c2noc(CNC(=O)c4cnn(C5CCOC5)c4)n2)n3CC(F)(F)F)[C@@H](F)C1 (stereo partly drawn) [Compound 314B, N-{[3-(4-{[(3S,4R)-1-ethyl-3-fluoropiperidin-4-yl]amino}-1-(2,2,2-trifluoroethyl)-1H-indol-2-yl)-1,2,4-oxadiazol-5-yl]methyl}-1-(oxolan-3-yl)-1H-pyrazole-4-carboxamide]"
8,* (* = 0 μM ≤ SC150 < 0.1 μM),"C[C@H]1CN(C)CC[C@H]1Nc1cccc2c1cc(-c1noc(CNC(=O)c3ccn(C(C)(C)C)c3)n1)n2CC(F)(F)F [Compound 514B, 1-tert-butyl-N-{[3-(4-{[(3S,4R)-1,3-dimethylpiperidin-4-yl]amino}-1-(2,2,2-trifluoroethyl)-1H-indol-2-yl)-1,2,4-oxadiazol-5-yl]methyl}-1H-pyrrole-3-carboxamide]"
9,* (* = 0 μM ≤ SC150 < 0.1 μM),"CN1CC[C@@H](F)[C@@H](Nc2cccc3c2cc(-c2noc(CNC(=O)c4cnn(C(C)(C)C)c4)n2)n3CC(F)(F)F)C1 [Compound 409B, Tert-butyl-N-[[3-[4-[[(3S,4R)-4-fluoro-1-methyl-3-piperidyl]amino]-1-(2,2,2-trifluoroethyl)indol-2-yl]-1,2,4-oxadiazol-5-yl]methyl]pyrazole-4-carboxamide]"
10,* (* = 0 μM ≤ SC150 < 0.1 μM),"Cc1nn(C(C)C)cc1C(=O)NCc1nc(-c2cc3c(N[C@@H]4CCN(C)C[C@@H]4F)cccc3n2CC(F)(F)F)no1 [Compound 311B, N-{[3-(4-{[(3S,4R)-3-fluoro-1-methylpiperidin-4-yl]amino}-1-(2,2,2-trifluoroethyl)-1H-indol-2-yl)-1,2,4-oxadiazol-5-yl]methyl}-3-methyl-1-(propan-2-yl)-1H-pyrazole-4-carboxamide]"
11,* (* = 0 μM ≤ SC150 < 0.1 μM),"CN1CC[C@@H](Nc2cccc3c2cc(-c2noc(CNC(=O)c4ccn(C(C)(C)CF)n4)n2)n3CC(F)(F)F)[C@@H](F)C1 [Compound 548B, N-{[3-(4-{[(3S,4R)-3-fluoro-1-methylpiperidin-4-yl]amino}-1-(2,2,2-trifluoroethyl)-1H-indol-2-yl)-1,2,4-oxadiazol-5-yl]methyl}-1-(1-fluoro-2-methylpropan-2-yl)-1H-pyrazole-3-carboxamide]"

# Further lines, the compound ahead of its results:
row,Structure (SMILES),Y220C SC150 (μM)
1,"COc1cc(S(C)(=O)=O)ccc1NCc1nnc(-c2cc3c(N[C@@H]4CCN(C)C[C@@H]4F)cccc3n2CC(F)(F)F)s1 [Compound 62B, N-[(3S,4R)-3-fluoro-1-methylpiperidin-4-yl]-2-(5-{[(4-methanesulfonyl-2-methoxyphenyl)amino]methyl}-1,3,4-thiadiazol-2-yl)-1-(2,2,2-trifluoroethyl)-1H-indol-4-amine]",* (* = 0 μM ≤ SC150 < 0.1 μM)
2,"COCC(=O)NCc1nnc(-c2cc3c(NC4CCN(C)CC4)cccc3n2CC(F)(F)F)s1 [Compound 60B, 2-methoxy-N-[(5-{4-[(1-methylpiperidin-4-yl)amino]-1-(2,2,2-trifluoroethyl)-1H-indol-2-yl}-1,3,4-thiadiazol-2-yl)methyl]acetamide]",** (** = 0.1 μM ≤ SC150 < 0.5 μM)
3,"CN1CC[C@H](Nc2cccc3c2cc(-c2nnc(CN)o2)n3CC(F)(F)F)[C@H](F)C1 (racemic) [Compound 116B, (+/−)-2-[5-(aminomethyl)-1,3,4-oxadiazol-2-yl]-N-[(3R,4S)-3-fluoro-1-methylpiperidin-4-yl]-1-(2,2,2-trifluoroethyl)-1H-indol-4-amine]",*** (*** = 0.5 μM ≤ SC150 < 1 μM)
4,"CN1CCC(Nc2cccc3c2cc(-c2cc(CNc4ccc(S(C)(=O)=O)cc4)[nH]n2)n3CC(F)(F)F)CC1 [Compound 22B, 2-(5-{[(4-methanesulfonylphenyl)amino]methyl}-1H-pyrazol-3-yl)-N-(1-methylpiperidin-4-yl)-1-(2,2,2-trifluoroethyl)-1H-indol-4-amine]",** (** = 0.1 μM ≤ SC150 < 0.5 μM)
5,"COC(=O)[C@@H]1C[C@H]1C(=O)NCc1nnc(-c2cc3c(NC4CCN(C)CC4)cccc3n2CC(F)(F)F)s1 (racemic) [Compound 75B, (+/−)-methyl (1R,2R)-2-{[(5-{4-[(1-methylpiperidin-4-yl)amino]-1-(2,2,2-trifluoroethyl)-1H-indol-2-yl}-1,3,4-thiadiazol-2-yl)methyl]carbamoyl}cyclopropane-1-carboxylate]",* (* = 0 μM ≤ SC150 < 0.1 μM)
6,"CCC1(C(=O)NCc2nnc(-c3cc4c(NC5CCN(C)CC5)cccc4n3CC(F)(F)F)s2)CC1 [Compound 74B, 1-ethyl-N-[(5-{4-[(1-methylpiperidin-4-yl)amino]-1-(2,2,2-trifluoroethyl)-1H-indol-2-yl}-1,3,4-thiadiazol-2-yl)methyl]cyclopropane-1-carboxamide]",** (** = 0.1 μM ≤ SC150 < 0.5 μM)
7,"CN1CC[C@H](Nc2cccc3c2cc(-c2nnc(CNC(=O)c4cccs4)o2)n3CC(F)(F)F)[C@H](F)C1 (racemic) [Compound 120B, (+/−)-N-{[5-(4-{[(3R, 4S)-3-fluoro-1-methylpiperidin-4-yl]amino}-1-(2,2,2-trifluoroethyl)-1H-indol-2-yl)-1,3,4-oxadiazol-2-yl]methyl}thiophene-2-carboxamide]",** (** = 0.1 μM ≤ SC150 < 0.5 μM)
8,"CN1CCC(Nc2cccc3c2cc(-c2nnc(CNc4ccccc4)o2)n3CC(F)(F)F)CC1 [Compound 108B, N-(1-methylpiperidin-4-yl)-2-{5-[(phenylamino)methyl]-1,3,4-oxadiazol-2-yl}-1-(2,2,2-trifluoroethyl)-1H-indol-4-amine]",** (** = 0.1 μM ≤ SC150 < 0.5 μM)
9,"CN1CC[C@@H](Nc2cccc3c2cc(-c2noc(CNC(=O)c4cn5ccccc5n4)n2)n3CC(F)(F)F)[C@@H](F)C1 [Compound 217B, N-{[3-(4-{[(3S,4R)-3-fluoro-1-methylpiperidin-4-yl]amino}-1-(2,2,2-trifluoroethyl)-1H-indol-2-yl)-1,2,4-oxadiazol-5-yl]methyl}imidazo[1,2-a]pyridine-2-carboxamide]",* (* = 0 μM ≤ SC150 < 0.1 μM)

# Same assay, conditions: concentration to increase DNA binding by […], incubated at either 27° C. or 29° C. for 60 min
row,Structure (SMILES),SC150 (μM)
1,"COCC(O)CN1CCC(Nc2cccc3c2cc(-c2ccc4c(c2)NC(=O)C4)n3CC(F)(F)F)CC1 (stereo not shown) [Compound 49A, 4-{[1-(2-hydroxy-3-methoxypropyl)piperidin-4-yl]amino}-1-(2,2,2-trifluoroethyl)-2′,3′-dihydro-1H,1′H-[2,6′-biindol]-2′-one]",++ (++ = 2 μM ≤ SC150 < 5 μM)
2,"CN1CC[C@H](Nc2cccc3c2cc(-c2ccc(CNC(=O)C4CC4)cc2)n3CC(F)(F)F)[C@H](F)C1 (racemic) [Compound 46A, (+/−)-N-{[4-(4-{[(3R,4S)-3-fluoro-1-methylpiperidin-4-yl]amino}-1-(2,2,2-trifluoroethyl)-1H-indol-2-yl)phenyl]methyl}cyclopropanecarboxamide]",+ (+ = 0 μM ≤ SC150 < 2 μM)
